Experimental data as given in patent publication US11554106B2, “Prevention of the risks associated with drug-induced QT interval prolongation by using a specific inhibitor of the production of ROS of miochondrial origin” (priority 2017, dated 2023).

Tests used:
tenocytes = conditions: pre-incubation of tenocytes with ATT at 10 μM for 3 hours; oxidative stress induced by FQ (ciprofloxacin, ofloxacin, pefloxacin); cited from earlier work
[1] = test system: acute organochlorine poisoning; assay: Treatment of a cat with acute organochlorine poisoning; assay type: in vivo; conditions: one cat, unpublished experiment
Source text: Knowing that when ROS are overexpressed by mitochondria, this induces a simultaneous overproduction of cytosolic ROS, whose production source is NADPH oxidase (or NOX, usually NOX4 and NOX2), some authors conclude that NOX are the first responsible when in fact mitochondrial production is the culprit (Gosh R. et al., J. Clin. Diagn. Res., 2017, 11: BC09-BC12; Mangum L. C. et al., Chem. Res. Toxicol, 2015, 28: 570-584).

QT and QTc intervals = assay: Moxifloxacin-induced QT prolongation in dogs (single-dose cross-over, telemetry ECG); assay type: in vivo, male Beagle dogs
Description: Principle: This is a single-dose study in dogs to examine the protective effect of ATT on QT prolongation induced by the intravenous (IV) injection of a dose of moxifloxacin, which is considered the reference substance (positive control).
Methodology: This is a cross-over and single-dose study conducted on 4 groups of 4 male Beagle dogs receiving, depending on the group: • Group 1—control group: intraperitoneal injection [i.p.] of the ATT vehicle; • Group 2—ATT, 5 mg/kg, administered i.p.; • Group 3—moxifloxacin, 15 mg/kg, administered as a slow IV injection in 5% lactic acid at 0.5 mL/kg; and • Group 4—an ATT dose of 5 mg/kg is injected i.p. 30 minutes before a slow IV dose of moxifloxacin of 15 mg/kg (see above).
In this study, each dog is equipped with an implantable teletransmitter of the “DSI radio-telemetry transmitter” type allowing continuous ECG recording over 24 hours in 10-minute sequences, including the measurement of PQ, QRS, QT and QTc spaces (correction according to the Van de Water formula), heart rate as well as systolic and diastolic BP and mean BP. ECG analysis is performed using Notocord Systems® ECG51a software and BP analysis using APR30a software, also from Notocord Systems®.

[2] = rats; cited from earlier work
human Jurkat T cells = conditions: cited from earlier work
[3] = 70 years marketed in France; cited from earlier work
QTcF interval = assay: TQT study of moxifloxacin-induced QT prolongation in healthy volunteers; assay type: in vivo, humans; conditions: 75 mg ATT oral 60 minutes before 400 mg oral moxifloxacin
Description: Principle: Following the 2005 ICH E14 recommendation (FDA, 2005), a TQT study (“through QT study”) was conducted in healthy volunteers to evaluate the protective effect of ATT on QT prolongation induced by a single oral dose of 400 mg moxifloxacin.
Methodology: This was a single-dose, cross-over study conducted in healthy volunteers.
The volunteers, 16 men aged 18 to 40, were selected based on the following criteria: medical history, physical examination (including a BMI between 18 and 26 kg/m2), vital signs, clinical examinations, biological check-up and 12-lead ECG.
The selected volunteers were equipped with a Holter ECG for a 24-hour recording.
Four sequences were tested with a 7-day wash-out period between each: • 1st sequence—no treatment was given; • 2nd sequence—each volunteer received a 400 mg oral dose of moxifloxacin; • 3rd sequence—each volunteer took 75 mg of ATT by mouth (3 tablets of Sulfarlem® 25); and • 4th sequence—each volunteer received a 400 mg oral dose of moxifloxacin, 60 minutes after an oral dose of 75 mg ATT (3 tablets of Sulfarlem® 25). […]

[4] = test system: 1Q site of the respiratory chain; conditions: cited from earlier work
[5] = marketed form; cited from earlier work

Structure (SMILES): COc1ccc(-c2cc(=S)ss2)cc1 [ATT, 5-(4-methoxyphenyl)-3H-1,2-dithiole-3-thione]
- cellular production of ROS (tenocytes): significantly reduces
- outcome of treatment of acute organochlorine poisoning [1]: successfully treated
- QT and QTc intervals (QT and QTc intervals; ATT 5 mg/kg i.p. 30 minutes before moxifloxacin 15 mg/kg slow IV): maintained in the normal range
- Vd [2]: about 2 L/kg
- free radical scavenger and antioxidant activity (human Jurkat T cells): powerful free radical scavenger and antioxidant
- side effects relating to long-term use [3]: no side effects have been reported
- upper limit of the confidence interval of the effect of moxifloxacin on the QTcF interval (QTcF interval): less than 10 msec

Structure (SMILES): COc1c(N2C[C@@H]3CCCN[C@@H]3C2)c(F)cc2c(=O)c(C(=O)O)cn(C3CC3)c12 [moxifloxacin]
- QT and QTc intervals (QT and QTc intervals; moxifloxacin 15 mg/kg slow IV alone): significantly increased

Structure (SMILES): O=[N+]([O-])c1ccc(Oc2ccc(S(=O)(=O)NC3CCCCC3)cc2)cc1 [NC-POBS, N-cyclohexyl-4-(4-nitrophenoxy)benzenesulfonamide]
- specific inhibition of mitochondrial ROS production [4]: specific inhibitor of mitochondrial ROS production

Structure (SMILES): Oc1ccc(-c2cc(=S)ss2)cc1 [ATX, 4-OH-anethole trithione]
- circulating product found after oral administration of ATT [5]: most of the circulating product found is ATX
- solubility in water (Solubility in water): insoluble in water
